# Measured values taken from US10597388B2, “Pyridazinone herbicides” (FMC CORPORATION, priority 2014, dated 2020).
# Tests used:
# Assay type in all cases: in vivo
# [1] = tested on: oat, wild (wild oat, Avena fatua); assay: Test C greenhouse herbicide test, postemergence
# Summary of the method: (§1)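 Test chemicals were applied postemergence to greenhouse plants at the 1- to 4-leaf stage (2–18 cm tall) growing in peat/vermiculite medium. After 13–15 d, injury was rated visually against untreated controls on a 0–100 scale (0 = no effect, 100 = complete control).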
# [2] = tested on: kochia (Kochia scoparia); assay: Test C greenhouse herbicide test, postemergence
# Summary of the method: as §1
# [3] = tested on: blackgrass (Alopecurus myosuroides); assay: Test A greenhouse herbicide test, postemergence
# Summary of the method: (§2)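 Seedlings in a loam soil and sand mix received formulated compound postemergence at the one- to two-leaf stage. Greenhouse holding lasts approximately 10 d, then injury is scored visually relative to untreated plants, 0 meaning no effect and 100 complete control.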
# [4] = tested on: galium (catchweed bedstraw, Galium aparine); assay: Test A greenhouse herbicide test, postemergence
# Summary of the method: as §2
# [5] = tested on: ragweed (common ragweed, Ambrosia elatior); assay: Test A greenhouse herbicide test, pre- and postemergence
# Summary of the method: (§3)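 Visual injury ratings, 0 (no effect) to 100 (complete control), versus untreated plants after roughly 10 d in a greenhouse. Compounds, formulated in a surfactant-containing non-phytotoxic solvent, were sprayed on loam–sand soil after sowing (pre) or on one- to two-leaf plants 2–10 cm tall (post).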
# [6] = tested on: corn (Zea mays); assay: as above; settings: Postemergence
# Summary of the method: as §3
# [7] = tested on: kochia (Kochia scoparia); assay: as above
# Summary of the method: as §3
# [8] = tested on: wheat (Triticum aestivum); assay: as above; settings: Postemergence
# Summary of the method: as §3
# [9] = tested on: barnyardgrass (Echinochloa crus-galli); assay: as above
# Summary of the method: as §3
# [10] = tested on: pigweed (Amaranthus retroflexus); assay: as above
# Summary of the method: as §3
# [11] = tested on: oilseed rape (Brassica napus); assay: Test C greenhouse herbicide test, pre- and postemergence
# Summary of the method: (§4)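 Greenhouse pots; pre-em on seeded loam:sand blend, post-em on 2–18 cm plants (1–4 leaf) in sphagnum peat/vermiculite medium. Formulation: non-phytotoxic solvent + surfactant. Read-out: visual % control (0–100) vs controls at 13–15 d.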
# [12] = tested on: crabgrass, large (large crabgrass, Digitaria sanguinalis); assay: as above
# Summary of the method: as §4
# [13] = Postemergence, 16 g ai/ha, scale 0 to 100 (0 no effect, 100 complete control)
# [14] = Postemergence, 31 g ai/ha, scale 0 to 100 (0 no effect, 100 complete control)
# [15] = Postemergence, 62 g ai/ha, 0 to 100 scale (0 no effect, 100 complete control)
# [16] = postemergence, 125 g ai/ha, scale 0 to 100, 0 no effect, 100 complete control
# [17] = 125 g ai/ha, 0 to 100 scale where 0 is no effect and 100 is complete control
# [18] = 500 g ai/ha, visual rating after approx. 10 d, 0 to 100 scale (0 no effect, 100 complete control)
# [19] = Postemergence, 125 g ai/ha, 0 to 100 scale where 0 is no effect and 100 is complete control
# [20] = Postemergence, 500 g ai/ha, visual rating after approx. 10 d, 0 to 100 scale (0 no effect, 100 complete control)
# [21] = Preemergence, 500 g ai/ha, 0 to 100 scale where 0 is no effect and 100 is complete control
# [22] = Preemergence, 125 g ai/ha, 0 to 100 scale where 0 is no effect and 100 is complete control
# [23] = Postemergence, 250 g ai/ha, scale 0 to 100, 0 no effect, 100 complete control, 13 to 15 d
# [24] = 125 g ai/ha, 0 to 100 scale, 0 no effect, 100 complete control
# [25] = Postemergence, 125 g ai/ha, 0 to 100 scale, 0 no effect, 100 complete control
# [26] = Preemergence, 125 g ai/ha, visual injury rating, 0 to 100 scale (0 no effect, 100 complete control), approx. 10 d
# [27] = Preemergence, 31 g ai/ha, scale 0 to 100, 0 is no effect, 100 is complete control
# [28] = Preemergence, 62 g ai/ha, scale 0 to 100, 0 is no effect, 100 is complete control
# [29] = Preemergence, 125 g ai/ha, scale 0 to 100, 0 is no effect, 100 is complete control
# [30] = Preemergence, 250 g ai/ha, scale 0 to 100 (0 no effect, 100 complete control)
structure (smiles),measurement,setting,value
COC(=O)Oc1cnn(C)c(=O)c1-c1c(C)ccc2ccccc12 [Compound 143],"Plant response rating, Oat, Wild",[1]; [13],30
same,"Plant response rating, Oat, Wild",[1]; [14],40
same,"Oat, Wild plant response rating",[1]; [15],55
same,"Oat, Wild plant response rating",[1]; [16],60
same,"Plant response rating, Kochia",[2]; [13],0
same,"Plant response rating, Kochia",[2]; [14],30
same,Kochia plant response rating,[2]; [15],60
same,Kochia plant response rating,[2]; [16],60
same,"Plant response rating, Blackgrass",[3]; [17],40
same,"Plant response rating, Blackgrass",[3]; [18],60
same,"Plant response rating, Galium",[4]; [17],90
same,"Plant response rating, Galium",[4]; [18],100
same,"Plant response rating, Ragweed",[5]; [19],70
same,"Plant response rating, Ragweed",[5]; [20],70
same,"Plant response rating, Ragweed",[5]; [21],90
same,"Plant response rating, Corn",[6]; [17],0
same,"Plant response rating, Corn",[6]; [18],20
same,"Plant response rating, Kochia",[7]; [19],70
same,"Plant response rating, Kochia",[7]; [20],90
same,Kochia plant response rating,[7]; [22],10
same,"Plant response rating, Kochia",[7]; [21],70
same,"Plant response rating, Wheat",[8]; [17],0
same,"Plant response rating, Wheat",[8]; [18],50
same,"Plant response rating, Barnyardgrass",[9]; [19],20
same,"Plant response rating, Barnyardgrass",[9]; [20],60
same,Barnyardgrass plant response rating,[9]; [22],20
same,"Plant response rating, Barnyardgrass",[9]; [21],80
same,"Plant response rating, Pigweed",[10]; [19],90
same,"Plant response rating, Pigweed",[10]; [20],90
same,Pigweed plant response rating,[10]; [22],80
same,"Plant response rating, Pigweed",[10]; [21],100
same,"Plant response rating, Oilseed Rape",[11]; [13],60
same,"Plant response rating, Oilseed Rape",[11]; [14],0
same,Oilseed Rape plant response rating,[11]; [15],0
same,Oilseed Rape plant response rating,[11]; [16],5
same,"Plant response rating, Crabgrass, Large",[12]; [13],5
same,"Plant response rating, Crabgrass, Large",[12]; [14],10
same,"Crabgrass, Large plant response rating",[12]; [15],10
same,"Crabgrass, Large plant response rating",[12]; [16],30
CC(=O)Oc1c(C)nn(C)c(=O)c1-c1c(C)cc(C)c2ccccc12 [Compound 153],"Plant response rating, Oat, Wild",[1]; [14],90
same,"Oat, Wild plant response rating",[1]; [15],95
same,"Plant response rating, Oat, Wild",[1]; [23],95
same,"Oat, Wild plant response rating",[1]; [16],95
same,"Plant response rating, Kochia",[2]; [14],40
same,Kochia plant response rating,[2]; [15],70
same,"Plant response rating, Kochia",[2]; [23],85
same,Kochia plant response rating,[2]; [16],80
same,"Plant response rating, Blackgrass",[3]; [24],90
same,"Plant response rating, Blackgrass",[3]; [18],90
same,"Plant response rating, Galium",[4]; [24],100
same,"Plant response rating, Galium",[4]; [18],100
same,"Plant response rating, Ragweed",[5]; [25],80
same,"Plant response rating, Ragweed",[5]; [20],90
same,"Plant response rating, Ragweed",[5]; [26],80
same,"Plant response rating, Ragweed",[5]; [21],90
same,"Plant response rating, Corn",[6]; [24],0
same,"Plant response rating, Corn",[6]; [18],80
same,"Plant response rating, Kochia",[7]; [25],40
same,"Plant response rating, Kochia",[7]; [20],90
same,"Plant response rating, Kochia",[7]; [26],80
same,"Plant response rating, Kochia",[7]; [21],90
same,"Plant response rating, Wheat",[8]; [24],0
same,"Plant response rating, Wheat",[8]; [18],30
same,"Plant response rating, Barnyardgrass",[9]; [25],90
same,"Plant response rating, Barnyardgrass",[9]; [20],90
same,"Plant response rating, Barnyardgrass",[9]; [26],100
same,"Plant response rating, Barnyardgrass",[9]; [21],100
same,"Plant response rating, Pigweed",[10]; [25],80
same,"Plant response rating, Pigweed",[10]; [20],100
same,"Plant response rating, Pigweed",[10]; [26],100
same,"Plant response rating, Pigweed",[10]; [21],100
same,"Plant response rating, Oilseed Rape",[11]; [14],90
same,Oilseed Rape plant response rating,[11]; [15],90
same,"Plant response rating, Oilseed Rape",[11]; [23],90
same,"Plant response rating, Oilseed Rape",[11]; [27],95
same,"Plant response rating, Oilseed Rape",[11]; [28],100
same,"Plant response rating, Oilseed Rape",[11]; [29],98
same,Oilseed Rape plant response rating,[11]; [30],100
same,Oilseed Rape plant response rating,[11]; [16],90
same,"Plant response rating, Crabgrass, Large",[12]; [14],55
same,"Crabgrass, Large plant response rating",[12]; [15],50
same,"Plant response rating, Crabgrass, Large",[12]; [23],75
same,"Plant response rating, Crabgrass, Large",[12]; [27],80
same,"Plant response rating, Crabgrass, Large",[12]; [28],100
same,"Plant response rating, Crabgrass, Large",[12]; [29],98
same,"Crabgrass, Large plant response rating",[12]; [30],100
same,"Crabgrass, Large plant response rating",[12]; [16],50
